Laboratory results published in patent US20240368174A1, “Antiviral Heterocyclic Compounds” (Enanta Pharmaceuticals, Inc., priority 2023, published 2024).

Key:
[1] = tested on: genotype A, “Long” strain RSV; test: RSV-A assay (CPE, ATPlite readout in Hep-2 cells); format: cell-based, Human respiratory syncytial virus; settings: activity class
Excerpt: Hep-2 cells, (originally derived from tumors grown in irradiated-cortisonised weanling rats that had been injected with epidermoid carcinoma tissue from the larynx of a person, but later found to be indistinguishable from HeLa cells by PCR DNA analysis), were used for the culturing of genotype A, “Long” strain RSV. Flasks were inoculated with RSV and viral stocks were collected once cytopathic effect (CPE) was greater than 90%. Viral stocks in 25% sucrose media were snap frozen using liquid nitrogen to increase viral stability. Viral stock titers were quantified by tissue culture infectious dose 50% (TCID50) using 8,000 cells per well and 3-fold viral dilutions across a 96-well plate, cultured for 4 days. Viral stock titers were also quantified by a plaque forming unit assay, as described elsewhere.
Following extensive parameter testing, the final assay is run as follows: Hep-2 cells are seeded into the inner 60 wells of a 96-well plate at 8,000 cells per well in a volume of 50 μL using Growth Media (DMEM without phenol red, 1% L-Glut, 1% Penn/Strep, 1% nonessential amino acids, 10% heat-inactivated FBS). 2-fold serial dilutions of control and test compounds are added to the wells in duplicate in a total volume of 25 μL. Viral stock is then added to the wells at a multiplicity of infection (MOI) of 0.1 in a volume of 25 μL, bringing the total volume of each well to 100 μL. The MOI is calculated using the PFU/mL, or TCID50 if unavailable. Each 96-well plate has a control column of 6 wells with cells and virus but no compound (negative control, max CPE), a column with cells but no compound or virus (positive control, minimum CPE), and a column with no cells or virus or compound (background plate/reagent control). The control wells with cells but no virus are given an additional 25 μL of growth media containing an equal quantity of sucrose as those wells receiving the viral stock in order to keep consistent in media and volume conditions. The outer wells of the plate are filled with 125 μL of moat media (DMEM, 1% Penn/Strep) to act as a thermal and evaporative moat around the test wells. Following a 5-day incubation period, the plates are read using ATPlite (50 uL added per well), which quantifies the amount of ATP (a measure of cell health) present in each well. Assay plates are read using the Envision luminometer. […] EC50 ranges are as follows: A<0.2 μM; B>0.2 μM.

[2] = tested on: HMPV clinical isolate A2 strain TN 94-49; test: HMPV antiviral assay, Method 2 (LLC-MK2 cells with CP-100-356, ATP-Lite); format: cell-based; settings: human metapneumovirus; hMPV A2 TN/94-49, LLC-MK2 cells with CP-100-356, Method 2
Procedure, shortened: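 LLC-MK2 rhesus kidney cells (5,000/well) infected in suspension with HMPV A2 TN 94-49 at MOI 0.16, in serum-free medium with final 2 μg/mL TPCK-trypsin and 2 μM CP-100-356. Compounds tested in duplicate from 200 nM, 2.5-fold, 10 points; 7 days at 37 °C. Cell health by ATP-Lite luminescence; EC50 by four-parameter fit.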

[3] = human respiratory syncytial virus

| EC50 [1, 3] | EC50 [2] | EC50 [1] | SMILES |
| --- | --- | --- | --- |
| < 200 nM | < 200 nM | – | COc1cc(C(=O)NC[C@](O)(c2cc3c(c(-c4cscc4C)n2)OC[C@]3(C)C(N)=O)C2CC2)cc2cn(C3CC3)nc12 [Example 414] |
| < 200 nM | < 200 nM | – | COc1cc(C(=O)NC[C@](O)(c2cc3c(c(-c4ccc(F)c(Cl)c4Cl)n2)OC[C@]3(C)C(N)=O)C2CC2)cc2oc(C3CC3)nc12 [Example 318] |
| < 200 nM | < 200 nM | – | C[C@]1(C(N)=O)COc2c1cc([C@@](O)(CNC(=O)c1cc(OC3CC3)n3nc(C4CC4)cc3c1)C1CC1)nc2-c1ccc(F)c(Cl)c1Cl [Example 325] |
| < 200 nM | < 200 nM | – | COc1cc(C(=O)NC[C@](O)(c2cc3c(c(-c4cc(C(F)(F)F)c(F)cc4F)n2)OC[C@]3(C)C(N)=O)C2CC2)cc2cc(C3CC3)nn12 [Example 327] |
| < 200 nM | > 200 nM | – | COc1cc(C(=O)NCC(O)(CC2CC2)c2cc3c(c(-c4cc(Cl)c(F)cc4F)n2)OC[C@]3(C)C(N)=O)cc2cn(C3CC3)nc12 (some centres unmarked) [Example 239] |
| < 200 nM | < 200 nM | – | COc1cc(C(=O)NC[C@@](O)(c2cccc(F)c2)c2cc3c(c(-c4cc(F)ncc4Cl)n2)OC[C@]3(C)C(N)=O)cc2cn(C3CC3)nc12 [Example 376] |
| < 200 nM | < 200 nM | – | COc1cc(C(=O)NC[C@](O)(c2cc3c(c(-c4ccnc(F)c4Cl)n2)OC[C@]3(C)C(N)=O)C2CC2)cc2cn(C3CC3)nc12 [Example 122] |
| < 200 nM | < 200 nM | – | COc1cc(C(=O)NC[C@](O)(c2cc3c(c(-c4ccnc(C)c4Cl)n2)OC[C@]3(C)C(N)=O)C2(F)CC2)cc2cn(C3CC3)nc12 [Example 531] |
| < 200 nM | < 200 nM | – | COc1cc(C(=O)NC[C@](O)(c2cc3c(c(-c4cc(F)c(F)cc4F)n2)OC[C@]3(C)C(N)=O)C2CC(F)(F)C2)cc2oc(C3CC3)nc12 [Example 124] |
| < 200 nM | < 200 nM | – | C[C@]1(C(N)=O)COc2c1cc([C@@](O)(CNC(=O)c1cc(OC3CC3)c3ncc(Cl)cc3c1)C1CC1)nc2-c1ccc(F)c(Cl)c1Cl [Example 321] |
| < 200 nM | – | – | COc1cc(C(=O)NC[C@](O)(c2cc3c(c(-c4cccc(OC(F)(F)F)c4Cl)n2)OC[C@]3(C)C(N)=O)C2CC2)cc2cn(C3CC3)nc12 [Example 440] |
| < 200 nM | – | – | COc1cc(C(=O)NC[C@](O)(c2cc3c(c(-c4ccnc(C(F)(F)F)c4Cl)n2)OC[C@]3(C)C(N)=O)C2(F)CC2)cc2cn(C3CC3)nc12 [Example 784] |
| < 200 nM | – | – | COc1cc(C(=O)NC[C@](O)(c2cc3c(c(-c4cc(C(F)(F)F)ncc4F)n2)OC[C@]3(C)C(N)=O)C2(F)CC2)cc2cn(C3CC3)nc12 [Example 458] |
| < 200 nM | – | – | COc1cc(C(=O)NC[C@](O)(c2cc3c(c(-c4ccnc(C)c4Cl)n2)OC[C@]3(C)C(N)=O)C2CC2)cc2cn(C3(F)CC3)nc12 [Example 754] |
| < 200 nM | – | – | COc1cc(C(=O)NC[C@](O)(c2cc3c(c(-c4cc(C(F)F)ncc4Cl)n2)OC[C@]3(C)C(N)=O)C2CC2)cc2cn(C3CC3)nc12 [Example 437] |
| < 200 nM | – | – | COc1cc(C(=O)NC[C@](O)(c2cc3c(c(-c4ccnc(C)c4Cl)n2)OC[C@]3(C)C(N)=O)C2CC2)cc2oc(C3CC3)nc12 [Example 755] |
| < 200 nM | – | – | COc1cc(C(=O)NC[C@](O)(c2cc3c(c(-n4ccc5c(F)cccc54)n2)OC[C@]3(C)C(N)=O)C2CC2)cc2cn(C3CC3)nc12 [Example 452] |
| < 200 nM | – | – | COc1cc(C(=O)NC[C@](O)(c2cc3c(c(-c4ccnc(Cl)c4Cl)n2)OC[C@]3(C)C(N)=O)C2CC2)cc2cn(C3(F)CC3)nc12 [Example 441] |
| < 200 nM | – | – | COc1cc(C(=O)NC[C@](O)(c2cc3c(c(-c4cncc(Cl)c4Cl)n2)OC[C@]3(C)C(N)=O)C2CC2)cc2cn(C(F)F)nc12 [Example 772] |
| < 200 nM | – | – | COc1cc(C(=O)NC[C@](O)(c2cc3c(c(-n4ccc5cccc(F)c54)n2)OC[C@]3(C)C(N)=O)C(F)(F)F)cc2cn(C3CC3)nc12 [Example 854] |
| < 200 nM | – | – | COc1cc(C(=O)NC[C@](O)(c2cc3c(c(-c4ccnc(OC(F)F)c4Cl)n2)OC[C@]3(C)C(N)=O)C2CC2)cc2cn(C3CC3)nc12 [Example 438] |
| < 200 nM | – | – | COc1cc(C(=O)NC[C@](O)(c2cc3c(c(-n4ccc5ccccc54)n2)OC[C@]3(C)C(N)=O)C2CC2)cc2cn(C(F)F)nc12 [Example 445] |

| EC50 [1, 3] | EC50 [2] | EC50 [1] | SMILES |
| --- | --- | --- | --- |
| > 200 nM | – | – | COc1cc(C(=O)NC[C@](O)(c2cc3c(c(-c4cc[nH]c(=O)c4Cl)n2)OC[C@]3(C)C(N)=O)C2CC2)cc2cn(C3CC3)nc12 [Example 436] |
| < 200 nM | – | – | COc1cc(C(=O)NC[C@](O)(c2cc3c(c(-c4ccnc(C)c4Cl)n2)OC[C@]3(C)C(N)=O)C2CC2)cc2cc(Cl)c(C)nc12 [Example 675] |
| < 200 nM | – | – | COc1cc(C(=O)NC[C@](O)(c2cc3c(c(-c4ccnc(Cl)c4Cl)n2)OC[C@]3(C)C(N)=O)C2CC2)cc2cn(C(F)F)nc12 [Example 422] |
| < 200 nM | – | – | COc1cc(C(=O)NC[C@](O)(c2cc3c(c(-n4nc(Cl)c5ccccc54)n2)OC[C@]3(C)C(N)=O)C2CC2)cc2cn(C3CC3)nc12 [Example 451] |
| < 200 nM | – | – | Cc1nccc(-c2nc([C@@](O)(CNC(=O)c3cc(Cl)c4nn(C5CC5)cc4c3)C3CC3)cc3c2OC[C@]3(C)C(N)=O)c1Cl [Example 674] |
| < 200 nM | – | – | COc1cc(C(=O)NC[C@](O)(c2cc3c(c(-n4ccc5ccccc54)n2)OC[C@]3(C)C(N)=O)C2CC2)cc2cn(C3(F)CC3)nc12 [Example 741] |
| – | – | < 200 nM | COc1cc(C(=O)NC[C@](O)(c2cc3c(c(-c4ccnc(Cl)c4Cl)n2)OC[C@]3(C)C(N)=O)C2CC2)cc2cn(C(F)F)nc12 [Example 732] |
| < 200 nM | – | – | COc1cc(C(=O)NC[C@](O)(c2cc3c(c(-c4cc(C(F)(F)F)ncc4F)n2)OC[C@]3(C)C(N)=O)C2(F)CC2)cc2cn(C(F)F)nc12 [Example 460] |
| < 200 nM | – | – | C[C@]1(C(N)=O)COc2c1cc([C@@](O)(CNC(=O)c1cc(OCCO)c3nn(C4CC4)cc3c1)C1CC1)nc2-c1ccc(F)c(Cl)c1Cl [Example 677] |
| < 200 nM | – | – | COc1cc(C(=O)NC[C@](O)(c2cc3c(c(-c4cc(C(F)(F)F)ncc4F)n2)OC[C@]3(C)C(N)=O)C2(F)CC2)cc2cn(C3(F)CC3)nc12 [Example 459] |
| < 200 nM | – | – | COc1cc(C(=O)NC[C@@](O)(c2cc(F)nc(F)c2)c2cc3c(c(-c4cccc(Cl)c4Cl)n2)OC[C@]3(C)C(N)=O)cc2cn(C3CC3)nc12 [Example 575] |
| < 200 nM | – | – | COc1cc(C(=O)NC[C@](O)(c2cc3c(c(-c4cc(C(F)(F)F)ncc4F)n2)OC[C@]3(C)C(N)=O)C2(F)CC2)cc2cc(C3CC3)nn12 [Example 462] |
| < 200 nM | – | – | COc1cc(C(=O)NC[C@](O)(c2cc3c(c(-c4cc(C(F)(F)F)ncc4F)n2)OC[C@]3(C)C(N)=O)C2(F)CC2)cn2cc(C3CC3)nc12 [Example 461] |
| < 200 nM | – | – | COc1cc(C(=O)NC[C@](O)(c2cc3c(c(-c4ccnc(C(F)(F)F)c4Cl)n2)OC[C@]3(C)C(N)=O)C2CC2)cc2cn(C3CC3)nc12 [Example 419] |
| > 200 nM | – | – | COc1cc(C(=O)NC[C@](O)(c2cc3c(c(-c4ccn(C)c(=O)c4Cl)n2)OC[C@]3(C)C(N)=O)C2CC2)cc2cn(C3CC3)nc12 [Example 423] |
| < 200 nM | – | – | COc1cc(C(=O)NC[C@](O)(c2cc3c(c(-n4ccc5cccc(F)c54)n2)OC[C@]3(C)C(N)=O)C2CC2)cc2cn(C3CC3)nc12 [Example 455] |
| < 200 nM | – | – | COc1cc(C(=O)NC[C@](O)(c2cc3c(c(-c4cccc(F)c4Cl)n2)OC[C@]3(C)C(N)=O)C2CC2)cc2oc(C3CC3)nc12 [Example 616] |
| < 200 nM | – | – | COc1cc(C(=O)NC[C@](O)(c2cc3c(c(-c4ccnc(C)c4Cl)n2)OC[C@]3(C)C(N)=O)C2CC2)cn2cc(C3CC3)nc12 [Example 672] |
| < 200 nM | – | – | COc1cc(C(=O)NC[C@](O)(c2cc3c(c(-n4ccc5ccc(F)cc54)n2)OC[C@]3(C)C(N)=O)C(F)(F)F)cc2cn(C3CC3)nc12 [Example 853] |
| < 200 nM | – | – | COc1cc(C(=O)NC[C@](O)(c2cc3c(c(-c4ccnc(C)c4Cl)n2)OC[C@]3(C)C(N)=O)C2CC2)cc2cn(C(F)F)nc12 [Example 753] |
| < 200 nM | – | – | C[C@]1(C(N)=O)COc2c1cc([C@@](O)(CNC(=O)c1cc(OCCO)c3nn(C4CC4)cc3c1)C1CC1)nc2-c1ccc(F)c(F)c1Cl [Example 676] |
